These results are taken from patent US20050266024A1 (priority 2002, published 2005).

“Also recorded” adds a separate entry of the source. Where two headings read alike, the source gives them in different places.

Experiment [1] deals with Balb/C mice. Put plainly: ELISA for subclass of HBsAg specific antibody (IgG1/IgG2a). Type of experiment: in vivo. The settings on record: Example 6; serum samples from different experiments; FIG. 15.
Experiment [2] has as its system Balb/C mice. Put plainly: Cellular immune responses after HBsAg DNA vaccine (assay not specified). Type of experiment: in vivo. As to conditions: as stated in Example 6. From the text: This experiment includes a plasmid that expresses HBsAg from the keratin 14 promoter. This was used to try and alter the expression of the antigen in different cell types and see if this affects the immune response. Mice were immunized twice.

Experiment [3] concerns Balb/C mice. Put plainly: CD8 IFN-g ELISA of spleen cells after HBsAg DNA vaccine. Format: in vivo. As to conditions: Example 2; prime and boost. From the text: (§1) For immunization with the Hepatitis B surface antigen (HBsAg) a plasmid containing the HCMV promoter/enhancer was used to drive expression of the HBsAg. For one experiment we also employed a plasmid in which the keratin 14 promoter was used instead of the HCMV promoter. This promoter is expected to have a more restricted pattern of expression and be expressed only in the skin unlike the HCMV promoter that is expressed in many cell types.
(§2) The cream is a 5% solution.
Mice were immunized with a DNA vaccine containing a HBsAg expressing plasmid using either a high dose (1 ug) or low dose (50 ng) of vaccine. […] One group was also treated for three days (day 0, 1 and 2). […] Results shown in FIG. 1 are from the CD8 IFN-g ELISA. […] The values are the means from 4 individual mice.

Experiment [4] has as its system Balb/C mice. Type of experiment: in vivo. As to conditions: Example 7; first experiment, prime only.
Experiment [5] has as its system Balb/C mice. Put plainly: Serum antibody ELISA (HBsAg) after HBsAg DNA vaccine. Type of experiment: in vivo. The settings on record: Example 2; prime and boost, HBsAg plasmid with HCMV promoter; FIG. 3. As to the method: as §1, §2
Serum samples were assayed for antibodies using an BLISA assay. Falcon Pro Bind microtiter plates were coated overnight at 4° C. with antigen in PBS (phosphate buffered saline, BioWhittaker). For HBsAg BLISA the antigen was purified HBsAg (BioDesign) at 0.1 ug per well, and for HSV ELISAs the antigen was 5 ug per well of an infected cell extract (Advanced Biotechnolgies Incorporated). […]
Plates were washed 3× and a biotinylated goat anti-mouse antibody (Southern Biotechnology) diluted 1:8000 in dilution buffer was added to the plate and incubated for 1 hr at RT. […] Optical density was read at 450 nm. Endpoint titers for HBsAg were calculated by comparison of the samples with a standard of known titer.

The test system of experiment [6] is Balb/C mice. Format: in vivo. The settings on record: for g-IFN secretion: first experiment. As to the method: Two further experiments were performed to assess the efficacy of imiquimod (Aldara cream) as an adjuvant for particle-mediated immunization with DNA (PMD). Both experiments used a plasmid expressing HBV sAg and cAg as a test vaccine. […] Readouts included antibody titers and cytokine ELISPOTs to the two antigens.
Groups of 5-10 Balb/c mice were vaccinated on the shaved abdomen with one shot each on day 0 (prime only) or days 0 and 28 (prime and boost). PMID was administered using an ND5.5 device with a payload of 1 mg Au and a 35 bar cylinder. […] In experiment one, a small, unmnetered amount of Aldara was delivered at the indicated times using a cotton swab to rub the cream in. […] The control cream was an over the counter hand cream which contained many of the same ingredients as the Aldara base cream.
Mice were bled retro-orbitally at 4 weeks for prime/boost groups. Blood was collected by intracardiac puncture, and spleens were removed for cellular assays at sacrifice at either week 2 (prime only) or week 6 (boost+2 weeks). Sera were analyzed for anti-sAg and anti-cAg antibodies using in-house ELISAs. Spleen cells from individual mice were stimulated with protein or peptide for g-IFN and IL-4 ELISPOT assays. Three sets of antigen were used: 1) intact cAg from Biodesign; 2) a library of overlapping sAg peptides (15 mers offset by 3 amino acids synthesized by Chiron); and 3) an immunodominant peptide from sAg (amino acids 28-39) known to bind the MHC class I molecule Ld. Specific spot-forming cells were calculated by subtracting the number of spots generated with cells cultured in medium alone.

The subject of experiment [7] is Balb/C mice. Put plainly: IFN-g ELISPOT of spleen cells after HBsAg DNA vaccine. The settings on record: Example 2; prime and boost.
Experiment [8] deals with Balb/C mice. Briefly: Anti-sAg and anti-cAg antibody ELISAs after PMID with HBV sAg/cAg plasmid. Type of experiment: in vivo. The settings on record: Example 7.
Experiment [9] relates to Balb/C mice. Put plainly: Resiquimod adjuvant test: cellular immune responses (CD8 ELISPOT) after HBsAg DNA vaccine. The settings on record: Example 16, topical. Type of experiment: in vivo. The procedure: Resiquimod is delivered topically to the abdominal skin of Balb/c mice on either day −2, −1, 0, 1, 2 or 3 relative to immunization on day 0. Immunization utilizes a DNA vaccine that expresses the Hepatitis B surface antigen so that cellular and antibody responses found after treatment with Resiquimod can be evaluated and compared to a wealth of historical data. The formulation consists of either a 0.05% cream, or a DMSO solution (approximately 5 mg/ml). Ideally both types of formula are tested. One half of the mice are sacrificed 7 days after immunization to measure cellular immune responses (CD8 ELISPOT). The remaining mice are bled 28 days after immunization, boosted with the same schedule as the priming immunization and then sacrificed 2 weeks later to test for antibody and cellular responses. Serum is used to test for antibody titer and to evaluation subclass distribution of IgG antibodies indicating the bias of the immune response.
For immunization DNA vaccine plasmids with a well-known immune response are employed. Plasmid WRG7128 is a likely choice which expresses the Hepatitis B surface antigen (HBsAg) using the HCMV promoter/enhancer and generates a cellular and antibody response.
Resiquimod is formulated as either a 0.05% cream, or a 5 mg/ml solution in DMSO. To apply the cream, it is rubbed onto the abdomens of mice using a cotton swab. […]

As to `CCCCC[C@H](O)/C=C/[C@H]1[C@H](O)CC(=O)[C@@H]1C/C=C\CCCC(=O)O` [PGE2], in experiment [1], the “ratio of IgG1/IgG2a of HBsAg specific antibody” value is given as “does not have the same effect overall”. In addition, the cellular responses entry in experiment [2] was “can enhance cellular responses”.
For `CC(C)Cn1cnc2c(N)nc3ccccc3c21` [imiquimod, 1-(2-methyl-propyl)-1H-imidazo[4,5-c]quinolin-4-amine], the “cellular response (IFN-g ELISA)” value in [3] is listed as “enhanced the responses”. Moreover, in experiment [4], the “IL-4 ELISPOTs / IL-4 secretion” value is “little effect; also recorded: no effect”. Further, the antibody levels entry in experiment [5] is “strong reduction in antibody levels”. Further, the “g-IFN ELISPOT response to class I-restricted peptide (CD8+ cells)” value in [6] (Example 7, first experiment, compared with sAg peptide library response) is “comaparable responses were seen”. Besides, the “optimal time point for augmenting g-IFN-secreting cells” value in [6] (Example 7, time after PMID) was “about a day and upto 7 days after PMID”. For the same compound, the g-IFN secretion entry in experiment [6] (highest dose of DNA, delivered right before or right after) is listed as “slightly inhibitory”; in experiment [6] (highest dose of DNA, given 24 hours after), “augments PMID”; in experiment [6] (low doses of DNA, administration 24 hours post PMID), “most effective”; in experiment [6] (low doses of HBV-encoding DNA, all three time points) it was “enhances g-IFN secretion”. Further, the “cellular response (ELISPOTs)” value in [7] is recorded as “enhanced the responses”. For the same compound, in experiment [8], the “antibody titers / antibody responses to HBV sAg and cAg” value was “little effect; also recorded: did not enhance antibody responses”.
On to `CCOCc1nc2c(N)nc3ccccc3c2n1CC(C)(C)O` [Resiquimod, 4-amino-2-ethoxymethyl-alpha,alpha-dimethyl-1H-imidazo [4,5-c]quinoline-1-ethanol], for which the cellular immune response entry in experiment [9] is reported as “boost in the cellular immune response”. Also, the “immune responses to the DNA vaccines” value in experiment [9] (before or after immunization) is given as “enhances immune responses”.
